Test results taken from patent US20130079322A1, “CRYSTALLINE OF CARBAPENEM DERIVATIVE OR ITS HYDRATE, PREPARATION METHODS AND USES THEREOF” (priority 2010, published 2013).
Values after ≈ are worked out from the molar mass of the structure shown.

Key:
[1] = Stability assay at a high temperature of 60° C. (HPLC content and related substances); assay type: physicochemical
Protocol: Condition for the assay: sampled after placing for 5 days, 10 days at a high temperature of 60° C., and the results thus obtained were compared with those obtained at day 0 by measuring related substances and contents thereof. The samples were sealed with plastic bags coated with aluminium foils during the assay. Amorphous compound A (refers to the amorphous for short hereinafter): self-prepared. Preparation method: see the preparation of amorphous compound A in the above preparative examples. The purity is 96.66%, and the batch number is 110901. The crystalline form I of compound A (refers to the crystalline form I for short hereinafter): prepared by example 1 of the Specification. The batch number is 20100315-4. Content determination is performed by external standard method using the sample at day 0 as control according to the high performance liquid chromatography in Chinese Pharmacopoeia, 2010 edition, appendix VD. Determination of related substances is performed by area normalization method according to the high performance liquid chromatography in Chinese Pharmacopoeia, 2010 edition, appendix VD. Mobile phase: A: 0.02 M diammonium phosphate (pH=5.2 adjusted by phosphoric acid):acetonitrile=95:5. • B: 0.02 M diammonium phosphate (pH=5.2 adjusted by phosphoric acid):acetonitrile=30:70. Gradient condition: see Table 1 The experimental results obtained: see Table 2

[2] = test system: Gram-positive and Gram-negative bacteria; assay: Antibacterial activity against clinically isolated strains (overall conclusion); assay type: cell-based; conditions: against both Gram-positive and Gram-negative bacteria
From the text: (§1) Test strains: the following clinically isolated strains were provided by public organizations.
Gram-positive bacteria: methicillin sensitive Staphylococcus aureus (MSSA), and penicillin sensitive Streptococcus pneumoniae;
(§2) Gram-negative bacteria: ESBLs negative Escherichia coli, ESBLs positive Escherichia coli, Haemophilus influenzae, and Moraxelle catarrhalis.
(§3) Test compound: the crystalline form I of compound A
(§4) Experimental method: standard agar double dilution method was adopted.

Moraxelle catarrhalis = assay: Antibacterial activity, standard agar double dilution method; assay type: cell-based; conditions: clinically isolated strains
From the text: as §1, §2, §3, §4

[3] = 60° C., day 5 compared with day 0
[4] = 60° C., day 10 compared with day 0

Content % ([1]; 60° C., day 5, sample at day 0 as control) [%]	Related substance % open ring % ([1]; 60° C., day 5, sealed) [%]	Related substance % total % ([1]; 60° C., day 5, sealed) [%]	Content decrease % [1, 3] [%]	Related substance % increase open ring % [1, 3] [%]	Related substance % increase total % [1, 3] [%]	Related substance % open ring % ([1]; day 0) [%]	Related substance % total % ([1]; day 0) [%]	Stability as compared with the amorphous of compound A ([1]; 60° C., 5 and 10 days)	Content decrease % [1, 4] [%]	Related substance % increase open ring % [1, 4] [%]	Related substance % increase total % [1, 4] [%]	MIC90 (Moraxelle catarrhalis) [ng/mL]	SMILES	Antibacterial activity [2]
73.16	3.328	20.675	26.84	2.852	11.38	0.476	9.295	–	–	–	–	–	C[C@@H](O)[C@H]1C(=O)N2C(C(=O)O)=C(S[C@@H]3CN[C@H](C(=O)NCc4ccc(S(N)(=O)=O)cc4)C3)[C@H](C)[C@H]12 [The amorphous]	–
–	–	–	3.73	0.646	0.841	–	–	more stable	3.95	0.984	1.167	8 (≈ 0.0152 µM)	C[C@@H](O)[C@H]1C(=O)N2C(C(=O)O)=C(S[C@@H]3CN[C@H](C(=O)NCc4ccc(S(N)(=O)=O)cc4)C3)[C@H](C)[C@H]12 [The crystalline form I]	excellent antibacterial activity
